Data on 28 compounds can be found in US20110224208A1, “NOVEL INHIBITORS OF FLAVIVIRUS REPLICATION” (KATHOLIEKE UNIVERSITEIT LEUVEN, K.U. LEUVEN R&D, priority 2008, published 2011).

Data set [1] is described as follows: Proliferation of exponentially growing Huh-5-2 cells (MTS method). Particulars: human, CC50, concentration required to inhibit the proliferation of exponentially growing Huh-5-2 cells by 50%; Table 2. The essentials: (§1)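 Huh-5-2 cells carrying the luciferase HCV replicon, seeded 24 h, then exposed to serial compound dilutions without G418 for 72 h at 37° C, 5% CO2. Replication read as luciferase luminescence, expressed as percentage of untreated cultures; culture density measured in parallel by MTS.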

For data set [2], the system named is HCV replicon I389luc-ubi-neo/NS3-3'/5.1. The experiment in a line: Anti-HCV replicon assay (luciferase activity) in Huh-5-2 cells. Type of data set: cell-based, Hepatitis C virus. Particulars: Hepatitis C virus, Huh-5-2, 72 h, concentration required to inhibit luciferase activity in the replicon system by 50%. The essentials: as §1
In general terms: A replicon is a self-replicating genome or part of one, used to study replication in cells.

Converted amounts (≈) assume the structure as drawn.

Turning to `COCCN1C(=O)c2ccccc2C(C(=O)Nc2ccc(CO)cc2)C1c1cccs1` (centres unmarked) [C181, N-(4-(hydroxymethyl)phenyl)-2-(2-methoxyethyl)-1-oxo-3-(thiophen-2-yl)-1,2,3,4-tetrahydroisoquinoline-4-carboxamide], the CC50 at 72 h in data set [1] worked out at 79.9 µg/mL (≈ 183 µM). The same compound yielded an IC50 in data set [2] of 0.25 µg/mL (≈ 0.573 µM).

Consider `COc1cccc(NC(=O)C2c3ccccc3C(=O)N(CC(F)(F)F)C2c2cccs2)c1` (centres unmarked) [C62, N-(3-methoxyphenyl)-1-oxo-3-(thiophen-2-yl)-2-(2,2,2-trifluoroethyl)-1,2,3,4-tetrahydroisoquinoline-4-carboxamide], for which half-maximal cytotoxicity in data set [1] (CC50 at 72 h) was put at 16.4 µg/mL (≈ 35.5 µM). Half-maximal inhibition in data set [2] (IC50) required 8.81 µg/mL (≈ 19.1 µM).

`COCCN1C(=O)c2ccccc2C(C(=O)Nc2cccc(OC)c2)C1c1nccs1` (centres unmarked) [C102, 2-(2-methoxyethyl)-N-(3-methoxyphenyl)-1-oxo-3-(thiazol-2-yl)-1,2,3,4-tetrahydroisoquinoline-4-carboxamide] showed a CC50 at 72 h in data set [1] of 72.8 µg/mL (≈ 166 µM). The same compound displayed a half-inhibitory concentration (IC50) in data set [2] of 26.8 µg/mL (≈ 61.3 µM).

In data set [1], `COCCN1C(=O)c2ccccc2C(C(=O)NCCc2cn(C)c3ccccc23)C1c1cccs1` (centres unmarked) [C44, 2-(2-Methoxyethyl)-N-(2-(1-methyl-1H-indol-3-yl)ethyl)-1-oxo-3-(thiophen-2-yl)-1,2,3,4-tetrahydroisoquinoline-4-carboxamide] returned a CC50 at 72 h of 28.4 µg/mL (≈ 58.2 µM). In data set [2], the midpoint of inhibition, the IC50, lay at 4.17 µg/mL (≈ 8.55 µM).

Consider `COCCN1C(=O)c2ccccc2C(C(=O)Nc2ccc(F)cc2)C1c1cccs1` (centres unmarked) [C95, N-(4-fluorophenyl)-2-(2-methoxyethyl)-1-oxo-3-(thiophen-2-yl)-1,2,3,4-tetrahydroisoquinoline-4-carboxamide], for which, in data set [1], the CC50 at 72 h was determined as 76.3 µg/mL (≈ 180 µM). Inhibition in data set [2] was half-maximal at 2.21 µg/mL (≈ 5.21 µM) (IC50).

The compound `COCCN1C(=O)c2ccccc2C(C(=O)Nc2cccc(OC)c2)C1C#Cc1ccccc1` (centres unmarked) [C119, 2-(2-methoxyethyl)-N-(3-methoxyphenyl)-1-oxo-3-(phenylethynyl)-1,2,3,4-tetrahydroisoquinoline-4-carboxamide] came in with a 50% cytotoxic concentration (CC50) at 72 h in data set [1] of 94 µg/mL (≈ 207 µM). Further, half-maximal inhibition in data set [2] (IC50) was put at 4.63 µg/mL (≈ 10.2 µM).

The compound `COCCN1C(=O)c2cc(OC)ccc2C(C(=O)Nc2cccc(OC)c2)C1c1cccs1` (centres unmarked) [C50, 7-Methoxy-2-(2-methoxyethyl)-N-(3-methoxyphenyl)-1-oxo-3-(thiophen-2-yl)-1,2,3,4-tetrahydroisoquinoline-4-carboxamide] came in with a cytotoxic concentration (CC50) at 72 h in data set [1] of 76.4 µg/mL (≈ 164 µM). In data set [2], this compound gave an IC50 of 0.7 µg/mL (≈ 1.5 µM).

`COCCN1C(=O)c2ccccc2C(C(=O)Nc2ccc3ncsc3c2)C1c1cccs1` (centres unmarked) [C170, N-(benzo[d]thiazol-6-yl)-2-(2-methoxyethyl)-1-oxo-3-(thiophen-2-yl)-1,2,3,4-tetrahydroisoquinoline-4-carboxamide] returned a CC50 at 72 h in data set [1] of 37.7 µg/mL (≈ 81.2 µM). Besides, the IC50 in data set [2] came to 0.12 µg/mL (≈ 0.259 µM).

Compound `CCc1nnc(NC(=O)C2c3ccccc3C(=O)N(CCOC)C2c2cccs2)o1` (centres unmarked) [C125, N-(5-ethyl-1,3,4-oxadiazol-2-yl)-2-(2-methoxyethyl)-1-oxo-3-(thiophen-2-yl)-1,2,3,4-tetrahydroisoquinoline-4-carboxamide] gave a CC50 at 72 h in data set [1] of 53.6 µg/mL (≈ 126 µM). This compound also returned an IC50 in data set [2] of 7.3 µg/mL (≈ 17.1 µM).

In data set [1], `COc1cccc(NC(=O)C2c3ccccc3C(=O)N(CCCN3CCOCC3)C2c2cccs2)c1` (centres unmarked) [C64, N-(3-methoxyphenyl)-2-(3-morpholinopropyl)-1-oxo-3-(thiophen-2-yl)-1,2,3,4-tetrahydroisoquinoline-4-carboxamide] showed a CC50 at 72 h of 47.8 µg/mL (≈ 94.5 µM). The concentration for half-maximal inhibition (IC50) in data set [2] worked out at 23.9 µg/mL (≈ 47.2 µM).

In the case of `COCCN1C(=O)c2ccccc2C(C(=O)Nc2ccc(-n3cncn3)cc2)C1c1cccs1` (centres unmarked) [C167, N-(4-(1H-1,2,4-triazol-1-yl)phenyl)-2-(2-methoxyethyl)-1-oxo-3-(thiophen-2-yl)-1,2,3,4-tetrahydroisoquinoline-4-carboxamide], the midpoint of cytotoxicity in data set [1], the CC50 at 72 h, lay at 60 µg/mL (≈ 127 µM). This compound also came in with an IC50 in data set [2] of 0.12 µg/mL (≈ 0.253 µM).

Take `COCCN1C(=O)c2ccccc2C(C(=O)Nc2cccc(OC)c2)C1c1ccsc1` (centres unmarked) [C11, 2-(2-Methoxyethyl)-N-(3-methoxyphenyl)-1-oxo-3-(thiophen-3-yl)-1,2,3,4-tetrahydroisoquinoline-4-carboxamide]: the CC50 at 72 h in data set [1] was 37.9 µg/mL (≈ 86.8 µM). Moreover, the IC50 in data set [2] was 1.2 µg/mL (≈ 2.75 µM).

`COCCN1C(=O)c2ccccc2C(C(=O)Nc2ccc(Cn3cccn3)cc2)C1c1cccs1` (centres unmarked) [C174, N-(4-((1H-pyrazol-1-yl)methyl)phenyl)-2-(2-methoxyethyl)-1-oxo-3-(thiophen-2-yl)-1,2,3,4-tetrahydroisoquinoline-4-carboxamide] registered a CC50 at 72 h in data set [1] of 43 µg/mL (≈ 88.3 µM). Further, the IC50 in data set [2] came out at 0.15 µg/mL (≈ 0.308 µM).

Turning to `COCCN1C(=O)c2ccccc2C(C(=O)Nc2ccc(C(=O)N(C)C)cc2)C1c1cccs1` (centres unmarked) [C139, N-(4-(dimethylcarbamoyl)phenyl)-2-(2-methoxyethyl)-1-oxo-3-(thiophen-2-yl)-1,2,3,4-tetrahydroisoquinoline-4-carboxamide], in data set [1], the CC50 at 72 h amounted to 75.3 µg/mL (≈ 158 µM). This compound yielded an IC50 in data set [2] of 2.74 µg/mL (≈ 5.74 µM).

In the case of `COCCN1C(=O)c2ccccc2C(C(=O)Nc2cccc(OC)c2)C1c1csc(C)n1` (centres unmarked) [C98, 2-(2-methoxyethyl)-N-(3-methoxyphenyl)-3-(2-methylthiazol-4-yl)-1-oxo-1,2,3,4-tetrahydroisoquinoline-4-carboxamide], the CC50 at 72 h in data set [1] came out at 80.9 µg/mL (≈ 179 µM). Besides, the half-maximal inhibitory concentration (IC50) in data set [2] stood at 50.3 µg/mL (≈ 111 µM).

In data set [1], `COCCN1C(=O)c2ccccc2C(C(=O)Nc2ccc(C#N)c(C(F)(F)F)c2)C1c1cccs1` (centres unmarked) [C221, N-(4-cyano-3-(trifluoromethyl)phenyl)-2-(2-methoxyethyl)-1-oxo-3-(thiophen-2-yl)-1,2,3,4-tetrahydroisoquinoline-4-carboxamide] yielded a CC50 at 72 h of 3.52 µg/mL (≈ 7.05 µM). This compound also yielded an IC50 in data set [2] of 0.36 µg/mL (≈ 0.721 µM).

As to `COCCN1C(=O)c2ccccc2C(C(=O)Nc2ccc(-c3cccnc3)cc2)C1c1cccs1` (centres unmarked) [C173, 2-(2-methoxyethyl)-1-oxo-N-(4-(pyridin-3-yl)phenyl)-3-(thiophen-2-yl)-1,2,3,4-tetrahydroisoquinoline-4-carboxamide], in data set [1], it took 9.59 µg/mL (≈ 19.8 µM) to reach half-maximal cytotoxicity (CC50 at 72 h). This compound registered an IC50 in data set [2] of 0.09 µg/mL (≈ 0.186 µM).

Turning to `COCCN1C(=O)c2c(ccc(C)c2F)C(C(=O)Nc2cccc(OC)c2)C1c1cccs1` (centres unmarked) [C93, 8-fluoro-2-(2-methoxyethyl)-N-(3-methoxyphenyl)-7-methyl-1-oxo-3-(thiophen-2-yl)-1,2,3,4-tetrahydroisoquinoline-4-carboxamide], half-maximal cytotoxicity in data set [1] (CC50 at 72 h) was put at 32.9 µg/mL (≈ 70.2 µM). The IC50 in data set [2] was 0.17 µg/mL (≈ 0.363 µM).

In turn, `COCCN1C(=O)c2ccccc2C(C(=O)Nc2cccc(Cn3ccnc3)c2)C1c1cccs1` (centres unmarked) [C212, N-(3-((1H-imidazol-1-yl)methyl)phenyl)-2-(2-methoxyethyl)-1-oxo-3-(thiophen-2-yl)-1,2,3,4-tetrahydroisoquinoline-4-carboxamide] had a CC50 at 72 h in data set [1] of 52.6 µg/mL (≈ 108 µM). Moreover, in data set [2], half-maximal inhibition (IC50) was put at 0.16 µg/mL (≈ 0.329 µM).

As for `CCOCCN1C(=O)c2ccccc2C(C(=O)Nc2cccc(OC)c2)C1c1cccs1` (centres unmarked) [C65, 2-(2-Ethoxyethyl)-N-(3-methoxyphenyl)-1-oxo-3-(thiophen-2-yl)-1,2,3,4-tetrahydroisoquinoline-4-carboxamide], the CC50 at 72 h in data set [1] stood at 90.2 µg/mL (≈ 200 µM). In data set [2], this compound had an IC50 of 1.76 µg/mL (≈ 3.91 µM).

In data set [1], `COCCN1C(=O)c2ccccc2C(C(=O)Nc2ccc(F)c(F)c2)C1c1cccs1` (centres unmarked) [C88, N-(3,4-difluorophenyl)-2-(2-methoxyethyl)-1-oxo-3-(thiophen-2-yl)-1,2,3,4-tetrahydroisoquinoline-4-carboxamide] showed a CC50 at 72 h of 60 µg/mL (≈ 136 µM). Further, the IC50 in data set [2] stood at 2.7 µg/mL (≈ 6.1 µM).

In data set [1], `CCOc1cccc(NC(=O)C2c3ccccc3C(=O)N(CCOC)C2c2cccs2)c1` (centres unmarked) [C59, N-(3-ethoxyphenyl)-2-(2-methoxyethyl)-1-oxo-3-(thiophen-2-yl)-1,2,3,4-tetrahydroisoquinoline-4-carboxamide] showed a CC50 at 72 h of 88.1 µg/mL (≈ 196 µM). Inhibition in data set [2] was half-maximal at 0.3 µg/mL (≈ 0.666 µM) (IC50).

With `COCCN1C(=O)c2ccccc2C(C(=O)Nc2ccc(-c3nnc(C)o3)cc2)C1c1cccs1` (centres unmarked) [C205, 2-(2-methoxyethyl)-N-(4-(5-methyl-1,3,4-oxadiazol-2-yl)phenyl)-1-oxo-3-(thiophen-2-yl)-1,2,3,4-tetrahydroisoquinoline-4-carboxamide], half-maximal cytotoxicity in data set [1] (CC50 at 72 h) was put at 38.8 µg/mL (≈ 79.5 µM). Further, in data set [2], half-maximal inhibition (IC50) required 0.034 µg/mL (≈ 0.0696 µM).

`COCCN1C(=O)c2ccccc2C(C(=O)Nc2cnccn2)C1c1cccs1` (centres unmarked) [C163, 2-(2-methoxyethyl)-1-oxo-N-(pyrazin-2-yl)-3-(thiophen-2-yl)-1,2,3,4-tetrahydroisoquinoline-4-carboxamide]: in data set [1], it took 81 µg/mL (≈ 198 µM) to reach half-maximal cytotoxicity (CC50 at 72 h). The compound further came in with an IC50 in data set [2] of 5.23 µg/mL (≈ 12.8 µM).

For the compound `COCCN1C(=O)c2ccccc2C(C(=O)Nc2ccc(OC3CCOCC3)cc2)C1c1cccs1` (centres unmarked) [C218, 2-(2-methoxyethyl)-1-oxo-N-(4-(tetrahydro-2H-pyran-4-yloxy)phenyl)-3-(thiophen-2-yl)-1,2,3,4-tetrahydroisoquinoline-4-carboxamide], the midpoint of cytotoxicity in data set [1], the CC50 at 72 h, lay at 83.8 µg/mL (≈ 165 µM). For the same compound, inhibition in data set [2] was half-maximal at 0.1 µg/mL (≈ 0.197 µM) (IC50).

`COCCN1C(=O)c2ccccc2C(C(=O)Nc2ccc3ncoc3c2)C1c1cccs1` (centres unmarked) [C219, N-(benzo[d]oxazol-6-yl)-2-(2-methoxyethyl)-1-oxo-3-(thiophen-2-yl)-1,2,3,4-tetrahydroisoquinoline-4-carboxamide] returned a half-maximal cytotoxic concentration (CC50) at 72 h in data set [1] of 91.1 µg/mL (≈ 204 µM). In addition, the IC50 in data set [2] is 1.14 µg/mL (≈ 2.55 µM).

Regarding `COCCN1C(=O)c2ccccc2C(C(=O)Nc2cccc(OC)c2)C1c1cccnc1` (centres unmarked) [C53, 2-(2-Methoxyethyl)-N-(3-methoxyphenyl)-1-oxo-3-(pyridin-3-yl)-1,2,3,4-tetrahydroisoquinoline-4-carboxamide], it took 80.8 µg/mL (≈ 187 µM) to reach half-maximal cytotoxicity in data set [1] (CC50 at 72 h). In data set [2], this compound gave an IC50 of 52.9 µg/mL (≈ 123 µM).

In data set [1], `COCCN1C(=O)c2ccccc2C(C(=O)Nc2cccc(CO)c2)C1c1cccs1` (centres unmarked) [C166, N-(3-(hydroxymethyl)phenyl)-2-(2-methoxyethyl)-1-oxo-3-(thiophen-2-yl)-1,2,3,4-tetrahydroisoquinoline-4-carboxamide] yielded a CC50 at 72 h of 64.3 µg/mL (≈ 147 µM). This compound returned an IC50 in data set [2] of 0.38 µg/mL (≈ 0.87 µM).

What is called CC50 is the concentration at which the toxic effect on the cells reaches its halfway point. Low values mean harm at low concentration, high ones better tolerance by the cells. One may read the IC50 as the concentration at which inhibition is half-maximal. A low value points to greater potency.
